Results from patent publication US20070082928A1, “Method for treating anxiety disorders, substance abuse/dependence, binge-eating disorders, insomnia and drug-induced flashbacks” (priority 2005, published 2007).

Tests used:
Assay type in all cases: in vivo, human
[1] = system: Person with Generalized Anxiety (GAD), PTSD and cannabis dependence; experiment: Case History 2: donepezil in a patient with GAD, PTSD, cannabis dependence, alcohol dependence and binge-eating disorder
From the text: a person has no other psychiatric antecedent.
Despite them on-going biweekly psychotherapy, they continued to abuse cannabis at about 2 to 3 joints a day.

[2] = system: Person with GAD anxiety symptoms; experiment: Case history 3: donepezil in a patient with GAD anxiety symptoms persisting after MDD
From the text: A person complained about insomnia, restlessness, tension, headaches, gastric symptoms, upset stomach, dizziness, fatigue, loss of appetite, and libido deficit. A person has been married for 13 years. Their spouse is a person working as an assistant director. The couple was well functioning, with two children, a child and a child in good health. A person was in good physical health and had no significant medical antecedent. A person had no previous psychiatric antecedent, nor any family history of mental disorders. […] […] a person is the youngest of 14 brothers and sisters.
A person was hospitalized in the Department of Psychiatry at Saint-Antoine Hospital and treated for MDD with venlafaxine from July 15 to Aug. […] Their anxiety consisted of excessive worrying, restlessness, tension, fatigue, loss of concentration, irritability, severe muscle tension and difficulty falling asleep. These symptoms met the GAD DSM IV criteria and persisted during the depressive episode and also when they no longer met the criteria for MDD. […] 9, 2005 to treat their anxiety symptoms. […] On Sep.

[3] = system: Person with post-traumatic stress disorder (PTSD); experiment: Case History 1: donepezil in a rape victim with PTSD after suspected GHB intake
From the text: A person had been living in NYC for their work since January 2005. On Jun. 15, 2005, they met some friends after dinner and went dancing with them. They experienced a strange sensation late in the evening after drinking a glass of champagne. They remembered feeling drowsy and confused. They had to stop dancing because of a severe sedation and took a taxi. A […] they didn't know until now accompanied them to their apartment, which was unusual for them.
They didn't remember anything about the taxi drive and their trip back home. They remembered being with an unknown person and strangely being led down on their couch in their living room and looking at them.
Thereafter they repeatedly saw themself waking up in the morning and looking at their bed where they had discovered a preservative, a proof that a sexual behaviour had occurred between 2 and 6 am.
They experienced terrifying nightmares and repetitive uncontrolled behaviour consisting of looking at […] waking up alone with a desperate feeling of being sexually abused and of loneliness. […] About the evening and the rape they remembered only their inability to move, refusing sexual advances of the unknown person, and feeling uncomfortable because of their unusual behaviour.
On Jun. 20, 2005, they consulted in the Department of Psychiatry at Saint-Antoine Hospital in Paris. […] A legal procedure was initiated in NYC before coming back to Paris. […] A toxicological analysis was performed using hair sample for detection of the suspected drug GHB.
During the initial interview, they were unable to give any detail about the evening and the night of the rape. A person requested a method to decrease their anxiety symptoms, insomnia and nightmares associated with the traumatic event. After a discussion about the case, it was decided on Jun.

[4] = 5 mg once a day, after one week
[5] = 5 mg once a day, patient report
[6] = 5 mg once a day, after one week, on ongoing venlafaxine
[7] = two weeks after increase to 5 mg b.i.d.

Structure (SMILES): CN1CCN2c3ncccc3Cc3ccccc3C2C1 (stereo not drawn) [mirtazapine]
- depressive symptoms (MDD) ([1]; 15 mg h.s. with biweekly psychotherapy, after 2 months of treatment): complete recovery

Structure (SMILES): COc1ccc(C(CN(C)C)C2(O)CCCCC2)cc1 (stereo not drawn) [venlafaxine]
- anxiety symptoms ([2]; ongoing venlafaxine 100 mg t.i.d.): did not respond
- depression (MDD) ([2]; treated from July 15 to Aug. 8, 2005, in hospital): recovered completely

Structure (SMILES): COc1cc2c(cc1OC)C(=O)C(CC1CCN(Cc3ccccc3)CC1)C2.Cl (racemic) [donepezil, (±)-2,3-dihydro-5,6-dimethoxy-2-[[1-(phenylmethyl)-4-piperidinyl]methyl]-1H-inden-1-one hydrochloride]
- alcohol intake ([1]; 5 mg once a day): significantly produced a decrease
- verbal fluency and cognitive performances ([1]; 5 mg once a day): did not improve
- binge-eating disorder [1, 4]: completely disappeared
- nightmares [1, 4]: completely disappeared
- craving for caffeine, nicotine, cannabis and binge-eating ([1]; 5 mg once a day, follow-up): significantly improved to the extent of disappearing
- GAD anxiety symptoms (nervousness, muscle tension, restlessness, anxiety, worry, insomnia, and tremor) ([1]; 5 mg once a day, follow-up August 30 and Sept. 2, 2005): much improved
- euphoria [1, 5]: no longer euphoric
- judgement [1, 5]: significantly improved
- motor coordination [1, 5]: improved
- sensations of slowed time [1, 5]: no more sensations of slowed time
- social withdrawal [1, 5]: no longer socially withdrawn
- cannabis smoking ([1]; 5 mg once a day, before: 2 to 3 joints a day): completely stop cannabis smoking without any withdrawal symptoms, nor craving symptoms
- effect of dose increase (nightmares related to drug withdrawal) ([1]; increased to 5 mg b.i.d.): further improvement with disappearance of nightmares
- anti-anxiety effect [2, 6]: definite anti-anxiety effect
- side effects [2, 6]: No side effects were observed
- anxiety symptoms / return to work ([2]; 6 days after increase to 5 mg b.i.d.): able to return to work without any anxious symptoms
- recall of details of the traumatic event ([3]; 5 mg once a day, after 7 days): some of the details of the post-traumatic event
- sleep and nightmares ([3]; 5 mg once a day, after 7 days): slept better without nightmares
- anxiety ([3]; 5 mg once a day, after one week of treatment): began to feel less anxious
- anxiety and tension [3, 7]: no more anxious nor tense
- sleep [3, 7]: returned to normal without nightmares
